Where two headings read alike, the source gives them in different places.
Experiments:
CYP51Tb = target: T1, CYP51Tb (Trypanosoma brucei brucei, UniProt Q385E8, L2A); test: biochemical; type: binding; details: spectral titration, room temperature, pH 7.5
T1 construct: His8 (C); made in house; host or cells: E. coli HMS174(DE3) co-transformed with pGro7 (GroES/GroEL)

CYP51Tc = target: T2, CYP51Tc (Trypanosoma cruzi, UniProt Q7Z1V1); test: biochemical; type: binding
T2 construct: His6 (C); made in house; host or cells: Escherichia coli HMS174(DE3)
T2 sequence (Q7Z1V1 21-481, looked up, natural form): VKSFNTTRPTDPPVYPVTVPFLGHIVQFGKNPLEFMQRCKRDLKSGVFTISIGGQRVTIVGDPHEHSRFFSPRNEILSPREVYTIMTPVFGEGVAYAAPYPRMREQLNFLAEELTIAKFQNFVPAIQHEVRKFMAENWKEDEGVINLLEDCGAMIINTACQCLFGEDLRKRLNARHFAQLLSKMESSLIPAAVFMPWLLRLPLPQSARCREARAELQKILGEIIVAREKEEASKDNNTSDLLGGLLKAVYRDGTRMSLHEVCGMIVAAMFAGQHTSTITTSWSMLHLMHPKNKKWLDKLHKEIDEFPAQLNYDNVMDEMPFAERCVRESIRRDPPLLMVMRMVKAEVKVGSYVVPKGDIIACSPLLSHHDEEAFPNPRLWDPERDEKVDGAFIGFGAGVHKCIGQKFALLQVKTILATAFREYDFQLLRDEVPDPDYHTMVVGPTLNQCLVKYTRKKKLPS

[1] = tested on: T. cruzi intracellular amastigotes; test: IC50: T. cruzi intracellular amastigotes in J774 macrophages, parasites/cell; type: cell-based, Trypanosoma cruzi; details: 52 h; for mean number of parasites/cell: untreated 3.57±0.5 P/cell
Protocol: To determine IC50, mouse J774 macrophages were irradiated (1000 rads) to deter growth and plated onto 12-well tissue culture plates. Cells were infected with 10^5 tissue culture trypomastigotes of the Y strain of T. cruzi for 2 h at 37°C, as described above. […] All treatments were performed in triplicate to ensure statistical validity. Cultures were then fixed in 4% paraformaldehyde in PBS for 2 h at room temperature and stained with DAPI (10 nM) in PBS. One hundred cells and their intracellular parasites were quantified as previously described to estimate the mean number of parasites/cell. Mean P/cell data were plotted against compound concentration to estimate the IC50.

[2] = tested on: T. cruzi Y strain trypomastigotes; test: T. cruzi assay: infection of J774 mouse macrophages, long-term treatment and cure; type: cell-based, Trypanosoma cruzi; details: 10 µM, infected J774 macrophages, treatment up to 27 days then 13–15 days without inhibitor
Protocol: Irradiated (1000 rads) J774 mouse macrophages were plated in 12-well tissue culture plates 24 h prior to infection with 10^5 T. cruzi Y strain trypomastigotes for 2 h at 37°C. […] Untreated controls, controls treated with the inhibitor K11777 (10 µM),[31], and uninfected macrophage controls were also included. All cultures were in triplicate and medium was replaced every 48 h. Treatment with CYP51 inhibitors continued for up to 27 days. Subsequently, treated cultures were maintained without inhibitor for an additional 13–15 days to confirm inhibitor effectiveness and cure of infected cells. Cultures were monitored daily by contrast phase microscopy to determine presence of T. cruzi infected cells and free infectious trypomastigotes (Table 2).

T. brucei = T. brucei assay, viability by ATP-bioluminescence (CellTiter-Glo); type: cell-based, Trypanosoma brucei; details: highest tested concentration 10 µM, 48 h
Protocol: Trypanosomes were grown in complete HMI-9 medium containing 10% FBS, 10% Serum Plus medium (Sigma Inc. St. Louis Mo. USA) and 1× penicillin/streptomycin. Trypanosomes were diluted to 1.0×10^5/ml in complete HMI-9 medium. Diluted trypanosomes were aliquoted in Greiner sterile 96-well flat white opaque culture plates using a WellMate cell dispenser (Matrix Tech., Hudson, NH, USA). Compounds 8 and 10 were serially diluted in Me2SO. Trypanosomes were incubated with the compounds for 48 h at 37°C with 5% CO2 before monitoring viability. Trypanosomes were then lysed in the wells by adding 50 µl of CellTiter-GloTM (Promega Inc., Madison, WI, USA). Lysed trypanosomes were placed on an orbital shaker at room temperature for 2 min. The resulting ATP-bioluminescence of the trypanosomes in the 96-well plates was measured at room temperature using an Analyst HT plate reader (Molecular Devices, Sunnyvale, CA, USA).

[3] = spectral titration, room temperature, pH 7.5, read-out: KD, μM CYP51Tc

T1 sequence (Q385E8 whole entry L2A): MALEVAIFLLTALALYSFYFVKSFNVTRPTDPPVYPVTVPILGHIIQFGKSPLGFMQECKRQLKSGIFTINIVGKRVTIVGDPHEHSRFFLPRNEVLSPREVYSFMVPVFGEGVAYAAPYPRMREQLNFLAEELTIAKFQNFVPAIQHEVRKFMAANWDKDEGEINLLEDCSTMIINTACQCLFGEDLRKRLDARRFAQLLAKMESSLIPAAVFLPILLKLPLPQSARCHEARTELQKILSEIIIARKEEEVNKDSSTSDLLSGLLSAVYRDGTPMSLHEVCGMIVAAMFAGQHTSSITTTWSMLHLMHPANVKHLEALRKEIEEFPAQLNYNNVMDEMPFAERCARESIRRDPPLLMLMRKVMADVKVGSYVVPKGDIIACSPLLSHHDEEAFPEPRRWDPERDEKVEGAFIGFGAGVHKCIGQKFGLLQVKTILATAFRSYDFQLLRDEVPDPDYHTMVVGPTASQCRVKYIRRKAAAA

In the case of `Cn1c(=O)c2c(ncn2CC(=O)Nc2ccncc2)n(C)c1=O` [Compound 7], the Kd (CYP51Tb) is reported as > 100 µM and the Kd (CYP51Tc; [3]) is reported as 20.7 ± 0.8 µM.

In the case of `CC1CCC(C(=O)NC(Cc2c[nH]c3ccccc23)C(=O)Nc2ccncc2)CC1` (centres unmarked) [Compound 10], the “mean number of parasites/cell” value ([1]; 10 µM) is reported as 0.25±0.01 P/cell, the inhibition at 10 µM ([1]; Trypanosoma cruzi, 10 µM, read-out: growth inhibition) is reported as 100% and the IC50 ([1]; Trypanosoma cruzi, Y strain, read-out: IC50 for T. cruzi intracellular growth inhibition) is reported as ~1 nM. For the same compound, the “KD, μM CYP51Tb” value (CYP51Tb) was “no binding”, the Host cell survival [2] was 40 days and the T. cruzi development [2] was “No”. The T. cruzi development ([2]; listed as compound 10) was “No parasites survived”, the “inhibitory effects against cultured T. brucei” value (“inhibitory effects” below) (T. brucei) was “neither compound 8 nor 10 had any inhibitory effects” and the “inhibitory effects” value (T. brucei; listed as compound 10) was “inactive”.

Work on `CSCC[C@H](NC(=O)[C@H]1CC[C@@H](C)CC1)C(=O)Nc1ccncc1` [Compound 9, cis-4-methyl-N-[(1S)-3-(methylsulfanyl)-1-(pyridin-4-ylcarbamoyl)propyl]cyclohexanecarboxamide] yielded a Kd (CYP51Tb) of 6.5 ± 0.6 µM.

In the case of `Cc1ccc(S(=O)(=O)NCCCOC(=O)Nc2ccncc2)cc1` [Compound 8, 3-{[(4-methylphenyl)sulfonyl]amino}propylpyridin-4-ylcarbamate], the “mean number of parasites/cell” value ([1]; 10 µM) is reported as 1.22±0.1 P/cell, the “KD, μM CYP51Tb” value (CYP51Tb) is reported as “no binding” and the Host cell survival [2] is reported as 5 days. It also gave a T. cruzi development [2] of 5 days, a Kd (CYP51Tc; KD (affinity toward CYP51Tc), spectral assays) of 0.16 µM and a Kd (CYP51Tc; KD, μM CYP51Tc, spectral titration, room temperature, pH 7.5) of 0.16 ± 0.03 µM. For the same compound, the “inhibitory effects” value (T. brucei) was “neither compound 8 nor 10 had any inhibitory effects”.

`CCC(C(=O)Nc1ccncc1)c1ccccc1` (stereo not drawn) [EBPA, α-ethyl-N-4-pyridinyl-benzeneacetamide, reference compound] was tested, and the Kd (CYP51Tc; [3]) was 0.48 ± 0.08 µM.

Source: PMC2629123, “Trypanosoma cruzi CYP51 Inhibitor Derived from a Mycobacterium tuberculosis Screen Hit” (PLoS Neglected Tropical Diseases, 2009)
